Laboratory results reported in US7119073B2, “Peptides and their use as inhibitors of hepatitis C virus ns3 protease” (Istituto Di Ricerche Di Biologia Molecolare P. Angeletti SpA, priority 2001, dated 2006).

Each compound was assayed against T1, NS3 protease domain complexed to a modified form of the NS4A peptide (Pep4AK) (Hepatitis C virus genotype 1b, UniProt P26663) (assay: HCV NS3 protease domain/NS4A cofactor peptide assay (Assay B)). Settings: Table 2; NS3 protease domain/Pep4AK; read-out: Assay B.
T1 construct: NS3 protease domain (residues 1027–1206 of the HCV polyprotein)
Type: biochemical

T1 sequence (P26663 1027-1206, other chains not shown): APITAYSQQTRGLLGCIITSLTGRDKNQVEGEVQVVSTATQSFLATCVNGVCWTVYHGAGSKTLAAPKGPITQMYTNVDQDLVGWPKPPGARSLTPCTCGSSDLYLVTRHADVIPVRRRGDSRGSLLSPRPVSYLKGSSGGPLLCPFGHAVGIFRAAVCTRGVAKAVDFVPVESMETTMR

SMILES	IC50
CC(C)C[C@H](NC(=O)[C@H](CCC(=O)O)NC(=O)CCc1ccccc1)C(=O)N[C@@H](CS)C(=O)NCCc1ccc(Cl)cc1Cl [Compound 217]	< 100 µM
CC(C)C[C@H](NC(=O)[C@H](CCC(=O)O)NC(=O)/C=C/c1ccc([N+](=O)[O-])cc1)C(=O)N[C@@H](CS)C(=O)NCCc1ccccc1Cl [Compound 218]	< 100 µM
CC(C)C[C@H](NC(=O)[C@H](CCC(=O)O)NC(=O)C1C[C@H]1c1ccccc1)C(=O)N[C@@H](CS)C(=O)NCCc1ccccc1Cl (some centres unmarked) [Compound 219]	< 100 µM
COc1ccc(CCNC(=O)[C@H](CS)NC(=O)[C@H](CC(C)C)NC(=O)[C@H](CCC(=O)O)NC(=O)C2C[C@H]2c2ccccc2)cc1 (some centres unmarked) [Compound 220]	< 100 µM
CC(C)C[C@H](NC(=O)[C@H](CCC(=O)O)NC(=O)[C@@H](O)c1ccccc1)C(=O)N[C@@H](CS)C(=O)NCCc1ccccc1Cl [Compound 221]	< 10 µM
CC(C)C[C@H](NC(=O)[C@H](CCC(=O)O)NC(=O)Cc1ccsc1)C(=O)N[C@@H](CS)C(=O)NCCc1ccccc1Cl [Compound 222]	< 100 µM
COc1ccc(CCNC(=O)[C@H](CS)NC(=O)[C@H](CC(C)C)NC(=O)[C@H](CCC(=O)O)NC(=O)Cc2cccs2)cc1 [Compound 223]	< 100 µM
CC(C)C[C@H](NC(=O)[C@H](CCC(=O)O)NC(=O)C(=O)c1cccs1)C(=O)N[C@@H](CS)C(=O)NCCc1ccccc1Cl [Compound 224]	< 100 µM
CC(C)C[C@H](NC(=O)[C@H](CCC(=O)O)NC(=O)Cc1ccccc1CC(=O)O)C(=O)N[C@@H](CS)C(=O)NCCc1ccc(Cl)cc1Cl [Compound 225]	< 10 µM
CC(C)C[C@H](NC(=O)[C@H](CCC(=O)O)NC(=O)Cc1cccc(CC(=O)O)c1)C(=O)N[C@@H](CS)C(=O)NCCc1ccc(Cl)cc1Cl [Compound 226]	< 100 µM

Second part, the compound after the results:

IC50	SMILES
< 100 µM	CC(C)C[C@H](NC(=O)[C@H](CCC(=O)O)NC(=O)Cc1ccc(CC(=O)O)cc1)C(=O)N[C@@H](CS)C(=O)NCCc1ccc(Cl)cc1Cl [Compound 227]
< 100 µM	C=CCCC(=O)N[C@@H](CCC(=O)O)C(=O)N[C@@H](CC(C)C)C(=O)N[C@@H](CS)C(=O)NCCc1ccccc1Cl [Compound 228]
< 100 µM	CC(C)CC(O)C(=O)N[C@@H](CCC(=O)O)C(=O)N[C@@H](CC(C)C)C(=O)N[C@@H](CS)C(=O)NCCc1ccccc1Cl (some centres unmarked) [Compound 229]
< 100 µM	CC(C)C[C@H](NC(=O)[C@H](CCC(=O)O)NC(=O)C1CCCCC1)C(=O)N[C@@H](CS)C(=O)NCCc1ccccc1Cl [Compound 230]
< 100 µM	COc1ccc(CCNC(=O)[C@H](CS)NC(=O)[C@H](CC(C)C)NC(=O)[C@H](CCC(=O)O)NC(=O)C2CCCCC2)cc1 [Compound 231]
< 100 µM	COc1ccc(CCNC(=O)[C@H](CS)NC(=O)[C@H](CC(C)C)NC(=O)[C@H](CCC(=O)O)NC(=O)C2CCCCCC2)cc1 [Compound 232]
< 100 µM	CC(C)C[C@H](NC(=O)[C@H](CCC(=O)O)NC(=O)CC1CCCCC1)C(=O)N[C@@H](CS)C(=O)NCCc1ccccc1Cl [Compound 234]
< 100 µM	CC(C)C[C@H](NC(=O)[C@H](CCC(=O)O)NC(=O)CCC1CCCC1)C(=O)N[C@@H](CS)C(=O)NCCc1ccccc1Cl [Compound 235]
< 100 µM	COc1ccc(CCNC(=O)[C@H](CS)NC(=O)[C@H](CC(C)C)NC(=O)[C@H](CCC(=O)O)NC(=O)CCC2CCCC2)cc1 [Compound 236]
< 100 µM	CC(C)C[C@H](NC(=O)[C@H](CCC(=O)O)NC(=O)N1CCOCC1)C(=O)N[C@@H](CS)C(=O)NCCc1ccccc1Cl [Compound 237]
< 100 µM	CC(C)C[C@H](NC(=O)[C@H](CCC(=O)O)NC(=O)CC1NC(=O)NC1=O)C(=O)N[C@@H](CS)C(=O)NCCc1ccc(Cl)cc1Cl (some centres unmarked) [Compound 238]
< 100 µM	CC(C)C[C@H](NC(=O)[C@H](CCC(=O)O)NC(=O)CCC(=O)O)C(=O)N[C@@H](CS)C(=O)NCCc1ccccc1Cl [Compound 239]
< 100 µM	CC(C)C[C@H](NC(=O)[C@H](CCC(=O)O)NC(=O)CC(C)(C)CC(=O)O)C(=O)N[C@@H](CS)C(=O)NCCc1ccccc1Cl [Compound 240]
